Measurements as given in patent US12459952B2, “TREM2 modulators” (Muna Therapeutics ApS, priority 2024, dated 2025).

Molecular target: T1, Human TREM2 (Homo sapiens, UniProt Q9NZC2)
T1 construct: expressed in transfected cells
Test: Human TREM2 cellular phospho-Syk AlphaLISA assay in HEK293/DAP12+TREM2 stable cell line
Type: cell-based
Conditions: HEK293/DAP12+TREM2 cells; for Emax: maximal response relative to the maximal response of the reference agonist, phospho-Syk AlphaLISA; for EC50: phospho-Syk (Tyr525/526) AlphaLISA signal, 30 min incubation
Text: Human TREM2, in vitro Measurement of Triggering Receptor Expressed on Myeloid Cells 2 activity using cellular phosphorylation of Spleen Tyrosine Kinase (“Syk”) Assay
HEK-293 cells were co-transfected with separate plasmids encoding TREM2 and DAP12 to generate a stable cell line. After antibiotic selection, functional clone pool analysis and two successive limiting dilutions, the final clone “HEK293/DAP12+TREM2” underwent a qPCR analysis and a pharmacological validation.
TREM2 signaling through DAP12 was monitored in the HEK293/DAP12+TREM2 stable cell line by measuring the phosphorylation levels of the Syk kinase using the commercially available AlphaLISA SureFire Ultra p-SYK (Tyr525/526) Assay Kit (PerkinElmer #ALSU-PSYK), based on the Perkin Elmer AlphaScreen/AlphaLISA technology.
Compounds are transferred to the test plate and tested in full dose response, 8 concentrations in quadruplicate data points. Compound serial dilutions were performed at Cybi-Felix instrument in 100% DMSO and the dose response curves were assembled in automated fashion in 384MPT at Hamilton STARlet instrument. All the stock solutions were prepared at 20 mM in 100% DMSO. For compounds testing, the starting concentration was 100 μM, dilution steps 1:6. A different concentration's range was adapted for compound's activity based on the preliminary results. Finally, a 384MPT reformatted for all compounds at 8 concentrations, quadruplicates, was used as “mother to child” process with a CyBi@-Well dispenser in which 1 μL of each compound was moved into a destination plate pre-filled with […] of EMEM cell culture medium (BIOWHITTAKER_cat.BE12-125F), thus obtaining 3× concentrated compounds working solution. In columns 1-2 and 23-24 the control wells were added. In particular, dose response curves of a reference control agonist were included in column 1 and 24 as reference control agonist (Reference control agonists used include Human TREM2 polyclonal Antibody AF1828: R&D Systems; Human TREM2 monoclonal Antibody MAB1828: R&D Systems). The dose response curves were tested starting at 30 μM, dilution step 1:6. Both “source” compound plate and “destination” compound plate were barcoded and a relationship between the two plates was thus generated.
HEK293/DAP12+TREM2 cells were cultured in EMEM medium supplemented with IX Penicillin/Streptomycin (BIOWHITTAKER_cat.DE17-602E), ULTRAGLUTAMINE I 200 mM, 10% Fetal Bovine Serum plus antibiotics referred to as “HEK293 Culture Medium”. The day before the experiment, cells were detached by gentle wash with DPBS, followed by 5 min incubation at 37° C. with Trypsin solution. Cells were then diluted in HEK293 Culture Medium without antibiotics, counted and seeded into 384-well poly-D-Lysine coated microplates black/clear bottom (GREINER 781946) at a density of 10,000 cells/well in 25 μL/well by the use of a MATRIX WellMate dispenser. Plates were placed into a humidified cell culture incubator at 37° C. with 5% CO2 until the experimental day. 20-24 hours after seeding mature medium was removed and replaced with 10 μL/well of EMEM cell medium supplemented with 0.1% Pluronic F-68 non-ionic surfactant (Thermofisher, 24040032), referred to as “Assay Buffer”, using the CyBi@-Well instrument. Then 5 μL/well of Assay Buffer containing 3× concentrated test compounds or the reference control agonist (in 0.5% final DMSO concentration) were added to the cells with the CyBi@-Well instrument. Cell plates were incubated for 30 min into a humidified cell culture incubator at 37° C. with 5% CO2, then the medium was removed by manually discard. 20 μL/well of lysis buffer were dispensed using the CyBi@-Well instrument and plates were incubated for 10 min at room temperature on a plate shaker (350 rpm). Then, 10 μL/well of lysate were transferred to the Alpha plates.
The CyBi@-Well instrument was used to dispense 5 μL/well of AlphaLISA Acceptor Bead Solution in IX Immunoassay buffer (Perkin Elmer AL000F). […]

T1 sequence (Q9NZC2 19-230): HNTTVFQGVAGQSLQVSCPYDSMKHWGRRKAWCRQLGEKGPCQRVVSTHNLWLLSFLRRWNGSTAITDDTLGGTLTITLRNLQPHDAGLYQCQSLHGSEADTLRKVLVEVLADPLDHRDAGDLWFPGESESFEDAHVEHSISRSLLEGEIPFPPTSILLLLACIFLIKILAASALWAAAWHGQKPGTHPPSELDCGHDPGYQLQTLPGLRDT
T1 sequence (O43914 22-113 partner): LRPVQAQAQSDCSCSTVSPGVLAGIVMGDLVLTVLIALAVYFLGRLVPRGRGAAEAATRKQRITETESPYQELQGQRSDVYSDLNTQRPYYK

SMILES | Emax [%] | EC50 [nM]
Cc1cc(OC2CN(c3nc(-c4ccc(F)cc4F)c4nc(C(F)(F)F)n(C)c(=O)c4n3)C2)ccn1 [Example 30, 8-(2,4-difluorophenyl)-3-methyl-6-(3-((2-methylpyridin-4-yl)oxy)azetidin-1-yl)-2-(trifluoromethyl)pyrimido[5,4-d]pyrimidin-4(3H)-one] | 75 to 110 | 10 to 100
CN(c1cnn(C2CC2)c1)C1CN(c2nc(-c3ccc(F)cc3F)c3nc(C(F)(F)F)n(C)c(=O)c3n2)C1 [Example 33, 6-(3-((1-cyclopropyl-1H-pyrazol-4-yl)(methyl)amino)azetidin-1-yl)-8-(2,4-difluorophenyl)-3-methyl-2-(trifluoromethyl)pyrimido[5,4-d]pyrimidin-4(3H)-one] | 75 to 110 | 100 to 1000
Cn1c(C(F)(F)F)nc2c(-c3ccc(C#N)cc3F)nc(N3CC(Oc4ccnc(C#N)c4)C3)nc2c1=O [Example 20, 4-((1-(4-(4-cyano-2-fluorophenyl)-7-methyl-8-oxo-6-(trifluoromethyl)-7,8-dihydropyrimido[5,4-d]pyrimidin-2-yl)azetidin-3-yl)oxy)picolinonitrile] | 75 to 110 | 10 to 100
Cn1c(C(F)(F)F)nc2c(-c3ccc(C#N)cc3F)nc(N3CC(Oc4ccnc(C(F)(F)F)c4)C3)nc2c1=O [Example 25, 3-fluoro-4-(7-methyl-8-oxo-6-(trifluoromethyl)-2-(3-((2-(trifluoromethyl)pyridin-4-yl)oxy)azetidin-1-yl)-7,8-dihydropyrimido[5,4-d]pyrimidin-4-yl)benzonitrile] | 75 to 110 | 10 to 100
Cn1c(C(F)(F)F)nc2c(-c3ccc(C#N)cc3F)nc(N3CC(Oc4cncnc4)C3)nc2c1=O [Example 27, 3-fluoro-4-(7-methyl-8-oxo-2-(3-(pyrimidin-5-yloxy)azetidin-1-yl)-6-(trifluoromethyl)-7,8-dihydropyrimido[5,4-d]pyrimidin-4-yl)benzonitrile] | < 75 | 100 to 1000
Cn1c(C(F)(F)F)nc2c(-c3ccc(C#N)cc3F)nc(N3CC(Oc4cnn(C(F)F)c4)C3)nc2c1=O [Example 14, 4-(2-(3-((1-(difluoromethyl)-1H-pyrazol-4-yl)oxy)azetidin-1-yl)-7-methyl-8-oxo-6-(trifluoromethyl)-7,8-dihydropyrimido[5,4-d]pyrimidin-4-yl)-3-fluorobenzonitrile] | 75 to 110 | 10 to 100
Cn1c(C(F)(F)F)nc2c(-c3ccc(C#N)cc3F)nc(N3CC(Oc4ccnc(C5CC5)c4)C3)nc2c1=O [Example 22, 4-(2-(3-((2-cyclopropylpyridin-4-yl)oxy)azetidin-1-yl)-7-methyl-8-oxo-6-(trifluoromethyl)-7,8-dihydropyrimido[5,4-d]pyrimidin-4-yl)-3-fluorobenzonitrile] | 75 to 110 | 10 to 100
CCc1nnc(OC2CN(c3nc(-c4ccc(C#N)cc4F)c4nc(C(F)(F)F)n(C)c(=O)c4n3)C2)s1 [Example 4, 4-(2-(3-((5-ethyl-1,3,4-thiadiazol-2-yl)oxy)azetidin-1-yl)-7-methyl-8-oxo-6-(trifluoromethyl)-7,8-dihydropyrimido[5,4-d]pyrimidin-4-yl)-3-fluorobenzonitrile] | 75 to 110 | 100 to 1000
Cn1c(C(F)(F)F)nc2c(-c3ccc(C#N)cc3F)nc(N3CC(Oc4cnn(C5CCCC5)c4)C3)nc2c1=O [Example 18, 4-(2-(3-((1-cyclopentyl-1H-pyrazol-4-yl)oxy)azetidin-1-yl)-7-methyl-8-oxo-6-(trifluoromethyl)-7,8-dihydropyrimido[5,4-d]pyrimidin-4-yl)-3-fluorobenzonitrile] | 75 to 110 | < 10
Cn1c(C(F)(F)F)nc2c(-c3ccc(C#N)cc3F)nc(N3CC(Oc4cnn(C5CC5)c4)C3)cc2c1=O [Example 41, 4-(6-(3-((1-cyclopropyl-1H-pyrazol-4-yl)oxy)azetidin-1-yl)-3-methyl-4-oxo-2-(trifluoromethyl)-3,4-dihydropyrido[3,4-d]pyrimidin-8-yl)-3-fluorobenzonitrile] | 75 to 110 | 100 to 1000
Cn1c(C(F)(F)F)nc2c(-c3ccc(C#N)cc3F)nc(N3CC(Oc4cnn(C5CC5)c4)C3)nc2c1=O [Example 1, 4-(2-(3-((1-cyclopropyl-1H-pyrazol-4-yl)oxy)azetidin-1-yl)-7-methyl-8-oxo-6-(trifluoromethyl)-7,8-dihydropyrimido[5,4-d]pyrimidin-4-yl)-3-fluorobenzonitrile] | 75 to 110 | < 10
Cc1cc(CC2CN(c3nc(-c4ccc(F)cc4F)c4nc(C(F)(F)F)n(C)c(=O)c4n3)C2)ccn1 [Example 34, 8-(2,4-difluorophenyl)-3-methyl-6-(3-((2-methylpyridin-4-yl)methyl)azetidin-1-yl)-2-(trifluoromethyl)pyrimido[5,4-d]pyrimidin-4(3H)-one] | < 75 | 10 to 100
Cn1c(C(F)(F)F)nc2c(-c3ccc(F)cc3F)nc(N3CC(Oc4cnn(C5CC5)c4)C3)cc2c1=O [Example 40, 6-(3-((1-cyclopropyl-1H-pyrazol-4-yl)oxy)azetidin-1-yl)-8-(2,4-difluorophenyl)-3-methyl-2-(trifluoromethyl)pyrido[3,4-d]pyrimidin-4(3H)-one] | < 75 | 100 to 1000
COc1cc(OC2CN(c3nc(-c4ccc(C#N)cc4F)c4nc(C(F)(F)F)n(C)c(=O)c4n3)C2)ccn1 [Example 21, 3-fluoro-4-(2-(3-((2-methoxypyridin-4-yl)oxy)azetidin-1-yl)-7-methyl-8-oxo-6-(trifluoromethyl)-7,8-dihydropyrimido[5,4-d]pyrimidin-4-yl)benzonitrile] | 75 to 110 | < 10
Cc1n[nH]c(C)c1OC1CN(c2nc(-c3ccc(C#N)cc3F)c3nc(C(F)(F)F)n(C)c(=O)c3n2)C1 [Example 9, 4-(2-(3-((3,5-dimethyl-1H-pyrazol-4-yl)oxy)azetidin-1-yl)-7-methyl-8-oxo-6-(trifluoromethyl)-7,8-dihydropyrimido[5,4-d]pyrimidin-4-yl)-3-fluorobenzonitrile] | 75 to 110 | 100 to 1000
Cc1nnc(OC2CN(c3nc(-c4ccc(C#N)cc4F)c4nc(C(F)(F)F)n(C)c(=O)c4n3)C2)s1 [Example 3, 3-fluoro-4-(7-methyl-2-(3-((5-methyl-1,3,4-thiadiazol-2-yl)oxy)azetidin-1-yl)-8-oxo-6-(trifluoromethyl)-7,8-dihydropyrimido[5,4-d]pyrimidin-4-yl)benzonitrile] | < 75 | 100 to 1000
Cn1cc(-c2nc(N3CC(Oc4cnn(C5CC5)c4)C3)nc3c(=O)n(C)c(C(F)(F)F)nc23)ccc1=O [Example 39, 6-(3-((1-cyclopropyl-1H-pyrazol-4-yl)oxy)azetidin-1-yl)-3-methyl-8-(1-methyl-6-oxo-1,6-dihydropyridin-3-yl)-2-(trifluoromethyl)pyrimido[5,4-d]pyrimidin-4(3H)-one] | 75 to 110 | 100 to 1000
COc1ccc(-c2nc(N3CC(Oc4cnn(C5CC5)c4)C3)nc3c(=O)n(C)c(C(F)(F)F)nc23)cn1 [Example 37, 6-(3-((1-cyclopropyl-1H-pyrazol-4-yl)oxy)azetidin-1-yl)-8-(6-methoxypyridin-3-yl)-3-methyl-2-(trifluoromethyl)pyrimido[5,4-d]pyrimidin-4(3H)-one] | 75 to 110 | 100 to 1000
